According to ChEMBL document CHEMBL5725619, “Substituted oxopyridine derivatives” (2018):

Test: Plasma Kallikrein Assay: Test substances are dissolved in dimethyl sulphoxide and serially diluted in dimethyl sulphoxide (3000 μM to 0.0078 μM; resulting final concentrations in the test: 50 μM to 0.00013 μM). 1 μl of the diluted substance solutions is placed into each of the wells of white microtitre plates from Greiner (384 wells). 20 μl of assay buffer (50 mM Tris/HCl pH 7.4; 100 mM sodium chloride solution; 5 mM of calcium chloride solution; 0.1% of bovine serum albumin) and 20 μl of plasma kallikrein from Kordia (0.6 nM in assay buffer) are then added successively. After 15 min of incubation, the enzyme reaction is started by addition of 20 μl of the substrate H-Pro-Phe-Arg-AMC dissolved in assay buffer (10 μM in assay buffer) from Bachem, the mixture is incubated at room temperature (22° C.) for 30 min and fluorescence is then measured (excitation: 360 nm, emission: 460 nm). The measured emissions of the test batches with test substance are compared to those of control batches without test substance (only dimethyl sulphoxide instead of test substance in dimethyl sulphoxide), and IC50 values are calculated from the concentration/activity relationships.

Compound `COCCC(C(=O)Nc1cc(F)c(C(N)=O)s1)n1cc(OC)c(-c2cc(Cl)ccc2C#N)cc1=O` (stereo unspecified) has an IC50 of 100 nM.
